Reference: US10597388B2, “Pyridazinone herbicides” (FMC CORPORATION, priority 2014, dated 2020)

Legend:
Format in all cases: in vivo
[1] = test system: johnsongrass (Sorghum halepense); assay: Test C greenhouse herbicide test, pre- and postemergence
Excerpt: (§1) Seeds of plant species selected from blackgrass (Alopecurus myosuroides), ryegrass, Italian (Italian ryegrass, Lolium multiflorum), wheat (winter wheat, Triticum aestivum), galium (catchweed bedstraw, Galium aparine), corn (Zea mays), large crabgrass, large (large crabgrass, Digitaria sanguinalis), foxtail, giant (giant foxtail, Setaria faberii), johnsongrass (Sorghum halepense), lambsquarters (Chenopodium album), morningglory (Ipomoea coccinea), nutsedge, yellow (yellow nutsedge, Cyperus esculentus), pigweed (Amaranthus retroflexus), ragweed (common ragweed, Ambrosia elatior), soybean (Glycine max), barnyardgrass (Echinochloa crus-galli), oilseed rape (Brassica napus), waterhemp (common waterhemp, Amaranthus rudis), and velvetleaf (Abutilon theophrasti) were planted into a blend of loam soil and sand and treated preemergence with test chemicals formulated in a non-phytotoxic solvent mixture which included a surfactant.
(§2) At the same time, plants selected from these crop and weed species and also chickweed (common chickweed, Stellaria media), kochia (Kochia scoparia), and oat, wild (wild oat, Avena fatua), were planted in pots containing Redi-Earth® planting medium (Scotts Company, 14111 Scottslawn Road, Marysville, Ohio 43041) comprising spaghnum peat moss, vermiculite, wetting agent and starter nutrients and treated with postemergence applications of test chemicals formulated in the same manner. Plants ranged in height from 2 to 18 cm (1- to 4-leaf stage) for postemergence treatments. Treated plants and controls were maintained in a greenhouse for 13 to 15 d, after which time all species were compared to controls and visually evaluated. Plant response ratings, summarized in Table C, are based on a scale of 0 to 100 where 0 is no effect and 100 is complete control. A dash (-) response means no test result.

[2] = test system: ryegrass, Italian (Italian ryegrass, Lolium multiflorum); assay: as above
Excerpt: as §1, §2

[3] = test system: crabgrass, large (large crabgrass, Digitaria sanguinalis); assay: as above
Excerpt: as §1, §2

[4] = test system: foxtail, giant (giant foxtail, Setaria faberii); assay: as above
Excerpt: as §1, §2

[5] = test system: oilseed rape (Brassica napus); assay: as above
Excerpt: as §1, §2

[6] = test system: galium (catchweed bedstraw, Galium aparine); assay: as above
Excerpt: as §1, §2

[7] = test system: lambsquarters (Chenopodium album); assay: as above
Excerpt: as §1, §2

[8] = test system: morningglory (Ipomoea coccinea); assay: as above
Excerpt: as §1, §2

[9] = test system: wheat (winter wheat, Triticum aestivum); assay: as above
Excerpt: as §1, §2

[10] = test system: ragweed (common ragweed, Ambrosia elatior); assay: as above
Excerpt: as §1, §2

[11] = test system: barnyardgrass (Echinochloa crus-galli); assay: as above
Excerpt: as §1, §2

[12] = test system: galium (catchweed bedstraw, Galium aparine); assay: Test A greenhouse herbicide test, postemergence
Summary of the method: (§3)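 Greenhouse postemergence test: formulated chemicals sprayed on one- to two-leaf plants (2 to 10 cm), grown in loam soil blended with sand. Injury assessed visually about 10 d later against untreated controls, scored 0 (no effect) to 100 (complete control).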

[13] = test system: blackgrass (Alopecurus myosuroides); assay: Test A greenhouse herbicide test, postemergence
Summary of the method: as §3

[14] = Postemergence, 31 g ai/ha, scale 0 to 100 (0 no effect, 100 complete control)
[15] = Postemergence, 125 g ai/ha, scale 0 to 100, 0 is no effect, 100 is complete control
[16] = Postemergence, 250 g ai/ha, scale 0 to 100, 0 no effect, 100 complete control, 13 to 15 d
[17] = Preemergence, 31 g ai/ha, scale 0 to 100, 0 is no effect, 100 is complete control
[18] = Preemergence, 62 g ai/ha, scale 0 to 100, 0 is no effect, 100 is complete control
[19] = Preemergence, 125 g ai/ha, scale 0 to 100, 0 is no effect, 100 is complete control
[20] = Preemergence, 250 g ai/ha, scale 0 to 100, 0 no effect, 100 complete control
[21] = postemergence, 62 g ai/ha, scale 0 to 100, 0 no effect, 100 complete control
[22] = 125 g ai/ha, 0 to 100 scale where 0 is no effect and 100 is complete control

CC(=O)Oc1c(C)nn(C)c(=O)c1-c1c(C)sc2ccc(Cl)cc12 [Compound 108]
40: Plant response rating, Crabgrass, Large [3, 16] | Plant response rating, Barnyardgrass [11, 15]
100: Lambsquarters plant response rating [7, 20] | Plant response rating, Morningglory [8, 16] | Plant response rating, Ragweed [10, 16] | Plant response rating, Galium [12, 22] | Plant response rating, Galium ([12]; 500 g ai/ha, visual rating after approx. 10 d, 0 to 100 scale (0 no effect, 100 complete control))
5: Plant response rating, Johnsongrass [1, 15] | Plant response rating, Johnsongrass [1, 16] | Plant response rating, Johnsongrass [1, 18] | Plant response rating, Crabgrass, Large [3, 14] | Plant response rating, Crabgrass, Large [3, 17] | Plant response rating, Oilseed Rape [5, 17] | Plant response rating, Wheat [9, 15] | Plant response rating, Barnyardgrass [11, 17]
0: Plant response rating, Johnsongrass [1, 14] | Plant response rating, Johnsongrass [1, 17] | Plant response rating, Wheat [9, 14] | Plant response rating, Wheat [9, 17]
65: Plant response rating, Crabgrass, Large [3, 19] | Plant response rating, Foxtail, Giant [4, 17]
35: Plant response rating, Barnyardgrass [11, 18] | Plant response rating, Barnyardgrass [11, 19] | Barnyardgrass plant response rating [11, 21]
95: Ryegrass, Italian plant response rating [2, 20] | Foxtail, Giant plant response rating [4, 20] | Plant response rating, Oilseed Rape [5, 16] | Plant response rating, Galium [6, 15] | Plant response rating, Galium [6, 16] | Plant response rating, Galium [6, 19] | Galium plant response rating [6, 20]
60: Plant response rating, Ryegrass, Italian [2, 17] | Plant response rating, Barnyardgrass [11, 16]
20: Johnsongrass plant response rating [1, 20] | Plant response rating, Barnyardgrass [11, 14]
10: Crabgrass, Large plant response rating [3, 21] | Plant response rating, Wheat [9, 16] | Plant response rating, Wheat [9, 18] | Wheat plant response rating [9, 20]
85: Plant response rating, Ryegrass, Italian [2, 18] | Plant response rating, Foxtail, Giant [4, 16] | Plant response rating, Foxtail, Giant [4, 18] | Plant response rating, Foxtail, Giant [4, 19] | Plant response rating, Oilseed Rape [5, 15] | Plant response rating, Lambsquarters [7, 17] | Barnyardgrass plant response rating [11, 20]
98: Plant response rating, Lambsquarters [7, 15] | Plant response rating, Lambsquarters [7, 16] | Plant response rating, Morningglory [8, 14] | Plant response rating, Morningglory [8, 15] | Plant response rating, Morningglory [8, 19] | Morningglory plant response rating [8, 20] | Plant response rating, Ragweed [10, 15] | Plant response rating, Ragweed [10, 19] | Ragweed plant response rating [10, 20]
25: Plant response rating, Crabgrass, Large [3, 15]
90: Plant response rating, Ryegrass, Italian [2, 14] | Plant response rating, Ryegrass, Italian [2, 15] | Plant response rating, Ryegrass, Italian [2, 16] | Plant response rating, Ryegrass, Italian [2, 19] | Plant response rating, Oilseed Rape [5, 18] | Plant response rating, Oilseed Rape [5, 19] | Oilseed Rape plant response rating [5, 20] | Plant response rating, Galium [6, 14] | Plant response rating, Galium [6, 17] | Plant response rating, Galium [6, 18] | Plant response rating, Lambsquarters [7, 14] | Plant response rating, Lambsquarters [7, 18] | Plant response rating, Lambsquarters [7, 19] | Plant response rating, Morningglory [8, 18] | Plant response rating, Ragweed [10, 14] | Plant response rating, Ragweed [10, 18] | Blackgrass plant response rating ([13]; 500 g ai/ha, 0 to 100 scale, 0 is no effect, 100 is complete control)
15: Plant response rating, Wheat [9, 19]
75: Plant response rating, Foxtail, Giant [4, 15] | Plant response rating, Ragweed [10, 17]
80: Plant response rating, Oilseed Rape [5, 14] | Plant response rating, Morningglory [8, 17] | Plant response rating, Blackgrass [13, 22]
70: Plant response rating, Crabgrass, Large [3, 18] | Crabgrass, Large plant response rating [3, 20]
30: Plant response rating, Johnsongrass [1, 19] | Plant response rating, Foxtail, Giant [4, 14]
